Measured values reported in PubChem BioAssay AID1963862 (Molecular Pharmacology Branch, DTP, NCI, 2024).

Tested on: KRAS patient-derived spheroids with HUVEC/MSC, viability
Test: Anticancer human tumor 941728-121-R-J1-PDC patient-derived lung adenocarcinoma cell line growth inhibition [KRAS2]
Settings: for viability, T/C: stronger effect = lower value
Method in brief: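 KRAS-mutant tumor cells were grown as spheroids with HUVEC endothelial cells and human MSCs as stroma. Targeted agents were tested alone and with KRAS pathway inhibitors. Doses started at or near clinical Cmax, or 10 microM, descending half-log.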

[1] = curve of first compound, second compound 0.1 µM
[2] = curve of first compound, second compound 0.316 µM
[3] = curve of first compound, second compound 1 µM
[4] = curve of first compound, second compound 3.16 µM
[5] = curve of first compound, second compound 10 µM
[6] = second compound 0.1 µM, first compound 0.0316 µM
[7] = second compound 0.1 µM, first compound 0.1 µM
[8] = second compound 0.1 µM, first compound 0.316 µM
[9] = second compound 0.1 µM, first compound 1 µM
[10] = second compound 0.1 µM, first compound 3.16 µM
[11] = second compound 0.1 µM, first compound 10 µM
[12] = second compound 0.316 µM, first compound 0.0316 µM
[13] = second compound 0.316 µM, first compound 0.1 µM
[14] = second compound 0.316 µM, first compound 0.316 µM
[15] = second compound 0.316 µM, first compound 1 µM
[16] = second compound 0.316 µM, first compound 3.16 µM
[17] = second compound 0.316 µM, first compound 10 µM
[18] = second compound 1 µM, first compound 0.0316 µM
[19] = second compound 1 µM, first compound 0.1 µM
[20] = second compound 1 µM, first compound 0.316 µM
[21] = second compound 1 µM, first compound 1 µM
[22] = second compound 1 µM, first compound 3.16 µM
[23] = second compound 1 µM, first compound 10 µM
[24] = second compound 3.16 µM, first compound 0.0316 µM
[25] = second compound 3.16 µM, first compound 0.1 µM
[26] = second compound 3.16 µM, first compound 0.316 µM
[27] = second compound 3.16 µM, first compound 1 µM
[28] = second compound 3.16 µM, first compound 3.16 µM
[29] = second compound 3.16 µM, first compound 10 µM
[30] = second compound 10 µM, first compound 0.0316 µM
[31] = second compound 10 µM, first compound 0.1 µM
[32] = second compound 10 µM, first compound 0.316 µM
[33] = second compound 10 µM, first compound 1 µM
[34] = second compound 10 µM, first compound 3.16 µM
[35] = second compound 10 µM, first compound 10 µM
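Further: spheroids exposed to agents for seven days before readout.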

## COC(=O)c1ccc2c(C(=Nc3ccc(N(C)C(=O)CN4CCN(C)CC4)cc3)c3ccccc3)c(O)[nH]c2c1 + C=CC(=O)N1CCN(c2nc(=O)n(-c3c(C)ccnc3C(C)C)c3nc(-c4c(O)cccc4F)c(F)cc23)C(C)C1
[1]
  IC50: < 31.6 nM
[2]
  IC50: < 31.6 nM
[3]
  IC50: < 31.6 nM
[4]
  IC50: < 31.6 nM
[5]
  IC50: < 31.6 nM
[6]
  viability, T/C: 24.5%
[7]
  viability, T/C: 19.7%
[8]
  viability, T/C: 16.4%
[9]
  viability, T/C: 12.7%
[10]
  viability, T/C: 10.2%
[11]
  viability, T/C: 7.41%
[12]
  viability, T/C: 22.8%
[13]
  viability, T/C: 20.1%
[14]
  viability, T/C: 18.5%
[15]
  viability, T/C: 12.8%
[16]
  viability, T/C: 8.05%
[17]
  viability, T/C: 6.62%
[18]
  viability, T/C: 26.3%
[19]
  viability, T/C: 21.2%
[20]
  viability, T/C: 16.8%
[21]
  viability, T/C: 14.4%
[22]
  viability, T/C: 7.55%
[23]
  viability, T/C: 5.43%
[24]
  viability, T/C: 27.1%
[25]
  viability, T/C: 25.1%
[26]
  viability, T/C: 20.8%
[27]
  viability, T/C: 17.8%
[28]
  viability, T/C: 6.67%
[29]
  viability, T/C: 8.37%
[30]
  viability, T/C: 41.2%
[31]
  viability, T/C: 30.2%
[32]
  viability, T/C: 31.6%
[33]
  viability, T/C: 29.6%
[34]
  viability, T/C: 4.3%
[35]
  viability, T/C: 0.23%

## COc1cc(Nc2ncc3c(n2)-c2ccc(Cl)cc2C(c2c(F)cccc2OC)=NC3)ccc1C(=O)O + CC1OCC2(CCN(c3cnc(Sc4ccnc(N)c4Cl)c(N)n3)CC2)C1N
[1]
  IC50: 137 nM
[2]
  IC50: < 31.6 nM
[3]
  IC50: < 31.6 nM
[4]
  IC50: < 31.6 nM
[5]
  IC50: < 31.6 nM
[6]
  viability, T/C: 53.1%
[7]
  viability, T/C: 47.6%
[8]
  viability, T/C: 48.5%
[9]
  viability, T/C: 48.5%
[10]
  viability, T/C: 50.3%
[11]
  viability, T/C: 41.6%
[12]
  viability, T/C: 42.3%
[13]
  viability, T/C: 41.9%
[14]
  viability, T/C: 40.2%
[15]
  viability, T/C: 39.2%
[16]
  viability, T/C: 36.6%
[17]
  viability, T/C: 35.3%
[18]
  viability, T/C: 29.8%
[19]
  viability, T/C: 33.4%
[20]
  viability, T/C: 36.6%
[21]
  viability, T/C: 34.6%
[22]
  viability, T/C: 28%
[23]
  viability, T/C: 23.9%
[24]
  viability, T/C: 23.7%
[25]
  viability, T/C: 25.4%
[26]
  viability, T/C: 26.9%
[27]
  viability, T/C: 26.6%
[28]
  viability, T/C: 13%
[29]
  viability, T/C: 14.5%
[30]
  viability, T/C: 16%
[31]
  viability, T/C: 15.4%
[32]
  viability, T/C: 13.4%
[33]
  viability, T/C: 13.6%
[34]
  viability, T/C: 12.4%
[35]
  viability, T/C: 9.18%

## Cn1nccc1Nc1nccc(-c2cc3c(s2)C(C)(C)N(CCN2CCOCC2)C3=O)n1 + CC1OCC2(CCN(c3cnc(Sc4ccnc(N)c4Cl)c(N)n3)CC2)C1N
[1]
  IC50: 47.7 nM
[2]
  IC50: < 31.6 nM
[3]
  IC50: < 31.6 nM
[4]
  IC50: < 31.6 nM
[5]
  IC50: < 31.6 nM
[6]
  viability, T/C: 53.7%
[7]
  viability, T/C: 43.2%
[8]
  viability, T/C: 38.1%
[9]
  viability, T/C: 36%
[10]
  viability, T/C: 29.2%
[11]
  viability, T/C: 35.1%
[12]
  viability, T/C: 45.1%
[13]
  viability, T/C: 41.5%
[14]
  viability, T/C: 34.3%
[15]
  viability, T/C: 34.9%
[16]
  viability, T/C: 25.8%
[17]
  viability, T/C: 25%
[18]
  viability, T/C: 38.2%
[19]
  viability, T/C: 39.2%
[20]
  viability, T/C: 31.3%
[21]
  viability, T/C: 30%
[22]
  viability, T/C: 23.8%
[23]
  viability, T/C: 18.9%
[24]
  viability, T/C: 33.5%
[25]
  viability, T/C: 30.4%
[26]
  viability, T/C: 30.9%
[27]
  viability, T/C: 24.4%
[28]
  viability, T/C: 16.3%
[29]
  viability, T/C: 18.3%
[30]
  viability, T/C: 29%
[31]
  viability, T/C: 29.5%
[32]
  viability, T/C: 21.5%
[33]
  viability, T/C: 15.6%
[34]
  viability, T/C: 10.8%
[35]
  viability, T/C: 13.1%

## CCN1CCN(Cc2ccc(Nc3ncc(F)c(-c4cc(F)c5nc(C)n(C(C)C)c5c4)n3)nc2)CC1
Compound 0.00316 µM
  viability, T/C: 86.1% [middle of 5 runs]
Compound 0.01 µM
  viability, T/C: 71.3% [middle of 5 runs]
Compound 0.0316 µM
  viability, T/C: 60.2% [middle of 5 runs]
Compound 0.1 µM
  viability, T/C: 59.9% [middle of 5 runs]
Compound 0.316 µM
  viability, T/C: 60.4% [middle of 5 runs]
Compound 1 µM
  viability, T/C: 74.5% [middle of 5 runs]
Curve of compound
  IC50: > 1000 nM

## Cn1nccc1Nc1nccc(-c2cc3c(s2)C(C)(C)N(CCN2CCOCC2)C3=O)n1 + COc1cc2nc(C)nc(NC(C)c3cc(N)cc(C(F)(F)F)c3)c2cc1OC1CCOC1
[1]
  IC50: 116 nM
[2]
  IC50: 145 nM
[3]
  IC50: 58.6 nM
[4]
  IC50: < 31.6 nM
[5]
  IC50: < 31.6 nM
[6]
  viability, T/C: 60.1%
[7]
  viability, T/C: 52.7%
[8]
  viability, T/C: 43.7%
[9]
  viability, T/C: 39.5%
[10]
  viability, T/C: 39.2%
[11]
  viability, T/C: 37.8%
[12]
  viability, T/C: 64.1%
[13]
  viability, T/C: 55.3%
[14]
  viability, T/C: 38.9%
[15]
  viability, T/C: 38.6%
[16]
  viability, T/C: 39.1%
[17]
  viability, T/C: 33.9%
[18]
  viability, T/C: 55.9%
[19]
  viability, T/C: 44.3%
[20]
  viability, T/C: 41.1%
[21]
  viability, T/C: 37.5%
[22]
  viability, T/C: 38.4%
[23]
  viability, T/C: 35.1%
[24]
  viability, T/C: 46.5%
[25]
  viability, T/C: 46.7%
[26]
  viability, T/C: 40.5%
[27]
  viability, T/C: 40.6%
[28]
  viability, T/C: 36.3%
[29]
  viability, T/C: 31.5%
[30]
  viability, T/C: 30.7%
[31]
  viability, T/C: 30.2%
[32]
  viability, T/C: 22.4%
[33]
  viability, T/C: 20.4%
[34]
  viability, T/C: 15%
[35]
  viability, T/C: 11.2%

## CC(C)n1nc(-c2ccc3oc(N)nc3c2)c2c(N)ncnc21 + C=CC(=O)N1CCN(c2nc(OCC3CCCN3C)nc3c2CCN(c2cccc4cccc(C)c24)C3)CC1CC#N
Curve of first compound, second compound 0.0316 µM
  IC50: < 0.316 nM
[1]
  IC50: < 0.316 nM
[2]
  IC50: < 0.316 nM
[3]
  IC50: < 0.316 nM
[4]
  IC50: < 0.316 nM
Second compound 0.0316 µM, first compound 0.000316 µM
  viability, T/C: 35.4%
Second compound 0.0316 µM, first compound 0.001 µM
  viability, T/C: 32.9%
Second compound 0.0316 µM, first compound 0.00316 µM
  viability, T/C: 24.6%
Second compound 0.0316 µM, first compound 0.01 µM
  viability, T/C: 17.3%
Second compound 0.0316 µM, first compound 0.0316 µM
  viability, T/C: 11.5%
Second compound 0.0316 µM, first compound 0.1 µM
  viability, T/C: 11%
Second compound 0.1 µM, first compound 0.000316 µM
  viability, T/C: 35.3%
Second compound 0.1 µM, first compound 0.001 µM
  viability, T/C: 28.8%
Second compound 0.1 µM, first compound 0.00316 µM
  viability, T/C: 28%
Second compound 0.1 µM, first compound 0.01 µM
  viability, T/C: 15.9%
[6]
  viability, T/C: 11.1%
[7]
  viability, T/C: 12.5%
Second compound 0.316 µM, first compound 0.000316 µM
  viability, T/C: 38.2%
Second compound 0.316 µM, first compound 0.001 µM
  viability, T/C: 33.9%
Second compound 0.316 µM, first compound 0.00316 µM
  viability, T/C: 26.6%
Second compound 0.316 µM, first compound 0.01 µM
  viability, T/C: 16.8%
[12]
  viability, T/C: 13%
[13]
  viability, T/C: 9.77%
Second compound 1 µM, first compound 0.000316 µM
  viability, T/C: 33.1%
Second compound 1 µM, first compound 0.001 µM
  viability, T/C: 29%
Second compound 1 µM, first compound 0.00316 µM
  viability, T/C: 20%
Second compound 1 µM, first compound 0.01 µM
  viability, T/C: 11.9%
[18]
  viability, T/C: 9.99%
[19]
  viability, T/C: 10.3%
Second compound 3.16 µM, first compound 0.000316 µM
  viability, T/C: 2.26%
Second compound 3.16 µM, first compound 0.001 µM
  viability, T/C: 0.92%
Second compound 3.16 µM, first compound 0.00316 µM
  viability, T/C: 0.32%
Second compound 3.16 µM, first compound 0.01 µM
  viability, T/C: 0.8%
[24]
  viability, T/C: 0.12%
[25]
  viability, T/C: 0.23%
